In patent US20030096237A1, “Determination of the ability of patients to respond to a tumor treatment” (priority 2000, published 2003):

Test system: CNCM I-2545
Experiment: oligonucleotide array analysis of IFN-α modulated gene expression
Type: cell-based, human
Method: All these cell lines were cultured in RPMI medium supplemented with 10% FCS, glutamine (2 mM), sodium pyruvate (1 mM), non-essential amino acids and HEPES buffer (10 mM) (all from GIBCO Life Sciences, Paisley, UK). When confluent, the cells were passaged by trypsinization.
Cultured melanoma cells were harvested by scraping and total cellular RNA was extracted. 10 μg from each sample were used directly as templates for cDNA synthesis using a commercial kit (Roche Molecular Biochemicals, Rotkreuz, Switzerland). The T7 promoter sequence incorporated into the cDNA synthesis primer allowed template amplification and biotin labeling by in vitro transcription using a commercial kit (Affymetrix, Santa Clara, Calif.). After alkaline heat fragmentation […] was hybridised to the array (Affymetrix, Santa Clara, Calif.) and all subsequent steps were performed following standard procedures as supplied with the arrays. Raw data were collected with a confocal laser scanner (Hewlett Packard, Palo Alto, Calif.) using GeneChip software v3.1 (Affymetrix, Santa Clara, Calif.).
Raw data were normalized based on the total chip signal obtained upon hybridisation of ME15 cell line cDNA. This array was selected because: i) the 5′/3′ intensity ratio of control genes was smaller than 3; ii)>25% of the genes are called “present” by Genechip; iii) the image appearance is homogeneous with low background and no sign of mechanical chip damage.
The normalized average difference (nAD) between the signals of the perfect and of the mismatch probesets for each gene was used as the expression level of a given gene. At least one nAD value in a pairwise comparison of data has to exceed 50 to be included. Based on nAD, change factors related to IFN-α exposure were also calculated. Negative nAD values were set to 20 in order to avoid the calculation of artificially high modifications. In order to exclude artefacts, only genes with robust change factors, greater than 2-fold, were included in the analysis. […] Genes were clustered according to their mode of regulation.
Total cellular RNA was extracted from the sensitive and resistant melanoma cell lines identified above, reverse transcribed and processed for hybridization to an oligonucleotide array (Hu6800FL, PN 900183) containing probe sets derived from 7000 full-length human genes. Expression levels for each gene were calculated as normalized average difference (nAD, see materials and methods).
Patterns of genes expressed in IFN-α sensitive and resistant melanoma cell lines were investigated upon 48 hour culture in the presence of IFN-α. CNCM I-2546 and CNCM I-2545 were studied in detail.
In Table 2 below, CNCM I-2546 and CNCM I-2545 cultured for 48 hours in the absence or in the presence of 100 U/ml IFN-α were used to assay cytokine modulated gene expression as matched with data obtained in fibrosarcoma cells. This analysis yielded six clusters of genes. […] Data are presented as average difference of signal intensity between match and mismatch probesets.
In Table 3 below, CNCM I-2546 and CNCM I-2545 cell lines cultured for 48 hours in the absence or in the presence of 100 U/ml IFN-α were used to identify novel cytokine induced genes whose expression was not found to be modulated in fibrosarcoma cells. Cluster 1 includes genes inducible in the CNCM I-2546 sensitive but not in the CNCM I-2545 resistant cell line. Cluster 2 comprises genes inducible in both lines. Data are presented as average difference of signal intensity between match and mismatch probesets.

[1] = CNCM I-2545, IFN-α 100 U/ml 48 hours

With IFN-α the “change factor (CF) D28137 bst-2” value [1] was 1.38, the “change factor (CF) D32050 alanyl-trna synthetase” value [1] was −0.92 and the “change factor (CF) D49824 hla-b null allele” value [1] was −0.97. The “change factor (CF) D50914 EST” value [1] was −2, the “change factor (CF) D78132 rheb gene, ras-related gtp binding protein gene” value [1] was 1.88 and the “change factor (CF) HG658 major histocompatibility complex, class 1 c” value [1] was −1.6. For the same substance, the “change factor (CF) HG1612 macmarcks” value [1] was −0.16, the “change factor (CF) HG2917 major histocompatibility complex, class i, e” value [1] was −0.1 and the “change factor (CF) J00105 beta-2 microglobulin gene” value [1] was 0.26. For the same substance, the “change factor (CF) J00212 leukocyte interferon (ifn-alpha)” value [1] was −4.3, the “change factor (CF) J03909 gamma-interferon-inducible protein (ip-30)” value [1] was 2.38 and the “change factor (CF) J04164 interferon-inducible protein 27-sep” value [1] was 0. The “change factor (CF) J04182 lysosomal membrane glycoprotein-1 (lamp1)” value [1] was 6.33, the “change factor (CF) J04444 cytochrome c-1 gene” value [1] was 1.56 and the “change factor (CF) K01900 lymphocyte interferon alpha type 201” value [1] was −6.8. For the same substance, the “change factor (CF) K03515 neuroleukin” value [1] was −0.17, the “change factor (CF) L07633 interferon-gamma” value [1] was 11.5 and the “change factor (CF) L13210 mac-2 binding protein” value [1] was −0.22. For the same substance, the “change factor (CF) L35249 vacuolar h + -atpase mr 56,000 subunit (ho57)” value [1] was 16.85, the “change factor (CF) L37043 casein kinase i epsilon” value [1] was 0.01 and the “change factor (CF) L40387 thyroid receptor interactor (trip14)” value [1] was −4.2. For the same substance, the “change factor (CF) L42243 ifnar2 gene (interferon receptor)” value [1] was −2.1, the “change factor (CF) M13755 interferon-induced 17-kda/15-kda protein” value [1] was 0.55 and the “change factor (CF) M19650 2′,3′-cyclic nucleotide 3prime-phosphodiesterase” value [1] was −0.38. For the same substance, the “change factor (CF) M30818 interferon-induced cellular resistance mediator protein” value [1] was 0, the “change factor (CF) M31013 nonmuscle myosin heavy chain (nmhc)” value [1] was −0.43 and the “change factor (CF) M34338 spermidine synthase” value [1] was −0.7. For the same substance, the “change factor (CF) M60784 ul snrnp-specific protein” value [1] was 2.59, the “change factor (CF) M65028 heterogeneous nuclear ribonucleoprotein a/b” value [1] was 1.29 and the “change factor (CF) M79462 pml-1” value [1] was −9.05. For the same substance, the “change factor (CF) M92642 alpha-1 type xvi collagen (col16a1)” value [1] was 4.75, the “change factor (CF) M94880 mhc class i (hla-a*8001)” value [1] was −0.31 and the “change factor (CF) M97935 transcription factor isgf-3” value [1] was −2.6. The “change factor (CF) M98343 amplaxin (ems1)” value [1] was 2.15, the “change factor (CF) S81914 iex-1 = radiation-inducible immediate-early gene” value [1] was 0.05 and the “change factor (CF) U01824 glutamate/aspartate transporter” value [1] was −8.69. The “change factor (CF) U09579 melanoma differentiation associated (mda-6)” value [1] was 0, the “change factor (CF) U18009 chromosome 17q21 clone lf113” value [1] was −0.59 and the “change factor (CF) U18018 ela enhancer binding protein (ela-f)” value [1] was 0.15. For the same substance, the “change factor (CF) U22970 16-jun gene, interferon-inducible peptide (6-16)” value [1] was 0.2, the “change factor (CF) U41515 dss1” value [1] was 5.15 and the “change factor (CF) U47025 fetal brain glycogen phosphorylase b” value [1] was −0.45. The “change factor (CF) U50327 protein kinase c substrate 80k-h gene (prkcsh)” value [1] was −0.7, the “change factor (CF) U50648 interferon-inducible rna-dependent protein kinase (pkr)” value [1] was −1.3 and the “change factor (CF) U51127 interferon regulatory factor 5” value [1] was −1.88. For the same substance, the “change factor (CF) U52513 rig-g” value [1] was −13.45, the “change factor (CF) U53830 interferon regulatory factor 7a” value [1] was −4.15 and the “change factor (CF) U61263 acetolactate synthase homolog” value [1] was −0.36. The “change factor (CF) U65579 mitochondrial nadh dehydrogenase-ubiquinone” value [1] was −0.01, the “change factor (CF) U65932 extracellular matrix protein 1 (ecm1)” value [1] was −1.34 and the “change factor (CF) U69126 fuse binding protein 2 (fbp2)” value [1] was 0.39. For the same substance, the “change factor (CF) U70063 human acid ceramidase” value [1] was 2.48, the “change factor (CF) U72206 guanine nucleotide regulatory factor (lfp40)” value [1] was −0.47 and the “change factor (CF) U72882 interferon-induced leucine zipper protein (ifp35)” value [1] was −3.63. For the same substance, the “change factor (CF) U78525 human eukaryotic translation initiation factor (eif3)” value [1] was 1.25, the “change factor (CF) U91316 acyl-coa thioester hydrolase” value [1] was 0.69 and the “change factor (CF) X04412 plasma gelsolin” value [1] was 0. The “change factor (CF) X07730 prostate specific antigen” value [1] was −1.75, the “change factor (CF) X15949 interferon regulatory factor-2 (irf-2)” value [1] was 0 and the “change factor (CF) X57351 1-8d gene from interferon-inducible gene family” value [1] was 0.09. For the same substance, the “change factor (CF) X57522 ring4 cdna” value [1] was −1.92, the “change factor (CF) X67325 p27” value [1] was 0 and the “change factor (CF) X70848 protein phosphatase 1, catalytic subunit” value [1] was 8.42. The “change factor (CF) X76538 mpv17” value [1] was −0.31, the “change factor (CF) X90846 mixed lineage kinase 2” value [1] was −4.95 and the “change factor (CF) X95325 dna binding protein a variant” value [1] was −1.51. For the same substance, the “change factor (CF) X96401 rox protein” value [1] was −1.76, the “change factor (CF) Y00264 amyloid a4 precursor” value [1] was 0.09 and the “change factor (CF) Z26491 gene catechol o-methyltransferase” value [1] was −0.31. The “change factor (CF) Z47055 farnesyl pyrophosphate synthetase like” value [1] was 1.02, the “change factor (CF) Z56281 interferon regulatory factor 3” value [1] was −2 and the “nAD D28137 bst-2” value (Table 3, CNCM I-2545 (+) IFN-α 100 U/ml 48 hours, (−) 37) was 88. The “change factor (CF) D28137 bst-2” value (Table 3, CNCM I-2545, IFN-α 100 U/ml 48 hours) was 1.38.
